Read-outs that look alike come from different tables or passages of the source. *1 amine or outer side, *2 acyl side, *3 side chain or, on linkers, in order; H or OH if unused. Where a SMILES comes first, the peptide text is derived from it. Side-chain parts run from the residue outwards. [ ]: non-standard residue; d: D form. The star is where a group is joined. C20 diacid = O=C(O)CCCCCCCCCCCCCCCCCCC(=O)*; γGlu = O=C(O)[C@H](CCC(=O)[*:2])N[*:1]; AEEA = NCCOCCOCC(=O)O; Aib = CC(C)(N)C(=O)O
How the values were obtained:
[1] = Chemical stability (RP-HPLC normalized purity after incubation at 40° C.); format: physicochemical; conditions: 14-day incubation, 0.2 mg/ml, normalized purity (area-%); for pH 7 normalized stability: pH 7, 40° C.
Method in brief: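 Peptide at 0.2 mg/ml final in water adjusted to pH 6, 7, 7.5 or 9, incubated at 40° C for 14 days. Purity measured as main-peak area-% by C18 RP-HPLC (acetonitrile/TFA/water gradient, UV 220 nm) and normalized to T=0 set at 100 for each pH.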

[2] = Solubility assessment (turbidity absorbance at 325 nm); format: physicochemical
Method in brief: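 Peptide stock at 2 mg/ml in water at pH 2.5 diluted 1:1 into 100 mM acetate (pH 4.0, 5.0), histidine (pH 6.0, 7.0) or phosphate (pH 6.0, 7.0, 7.5) buffer. Absorbance at 280 and 325 nm read at ambient temperature (typically 25 °C), single samples (n=1).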

[3] = biological target: T1, human GLP-2 receptor (Homo sapiens, UniProt O95838, D470N); assay: GLP-2 receptor potency assay (cAMP ALPHASCREEN, HEK293 cells stably expressing GLP-2 R); format: cell-based; conditions: cAMP response, HEK293 cells expressing human GLP-2 R; read-out: EC50 GLP-2
T1 construct: expressed in transfected cells
T1 sequence (O95838 1-553 D470N): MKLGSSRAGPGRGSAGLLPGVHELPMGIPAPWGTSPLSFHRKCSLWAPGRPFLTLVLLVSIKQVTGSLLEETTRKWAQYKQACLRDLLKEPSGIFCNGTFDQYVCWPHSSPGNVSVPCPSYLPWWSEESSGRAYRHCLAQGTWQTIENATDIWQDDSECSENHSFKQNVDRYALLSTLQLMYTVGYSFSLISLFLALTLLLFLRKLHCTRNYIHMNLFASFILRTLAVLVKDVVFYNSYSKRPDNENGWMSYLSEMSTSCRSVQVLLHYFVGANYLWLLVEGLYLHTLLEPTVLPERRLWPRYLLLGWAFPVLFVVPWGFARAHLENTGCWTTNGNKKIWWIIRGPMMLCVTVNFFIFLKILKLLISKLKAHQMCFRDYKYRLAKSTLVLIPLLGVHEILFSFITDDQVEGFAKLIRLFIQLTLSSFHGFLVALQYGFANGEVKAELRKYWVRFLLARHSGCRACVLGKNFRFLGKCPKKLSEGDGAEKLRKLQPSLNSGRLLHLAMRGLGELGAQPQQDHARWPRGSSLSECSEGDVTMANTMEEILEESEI
Source text: One useful in vitro assay for measuring GLP-1 and GLP-2 receptor activity is quantitation of cAMP, i.e. 3′-5′-cyclic adenosine monophosphate, which is a second messenger essential in many biological processes, and one of the most ubiquitous mechanisms for regulating cellular functions.
For subcloning into a mammalian expression vector, primers for subcloning were obtained from DNA-Technology, Risskov, Denmark. The 5′ and 3′ primers used for the PCR reaction include terminal restriction sites for cloning and the context of the 5′ primer is modified to a Kozak consensus without changing the sequence of the product encoded by the ORF. […] The generated PCR product was purified using GFX PCR and Gel band purification kit, digested with restriction enzymes and cloned into the mammalian expression vector using Rapid DNA Ligation Kit. Ligation reaction was transformed to XL10 Gold Ultracompetent cells and colonies were picked for DNA production using ENDOFREE® Plasmid maxi kit. Subsequent sequence analysis was conducted by MWG Eurofins, Germany.
HEK293 cells were transfected using the LIPOFECTAMINE® PLUS transfection method. The day before transfection, HEK293 cells were seeded in two T75 flasks at a density of 2×10^6 cells/T75 flask in cell culturing medium without antibiotics. On the day of transfection, cells were washed with 1× DPBS and medium was replaced with OPTI-MEM© to a volume of 5 mL/T75 flask before addition of LIPOFECTAMINE®-plasmid complexes were added gently and drop wise to the cells in T75 flasks and replaced with growth medium after 3 hours and again to growth medium supplemented with 500 μg/mL G418 after 24 hours. Following 4 weeks in G418 selection, clones were picked and tested in a functional GLP-2 receptor potency assay as described below.
The cAMP ALPHASCREEN® assay from Perkin Elmer was used to quantitate the cAMP response to activation of the GLP1 and GLP2 receptor, respectively. […] Data from test compounds eliciting an increase in the intracellular level of cAMP were normalized relative to the positive and negative control (vehicle) to calculate the EC50 and maximal response from the concentration response curve.

[4] = 100 mM acetate buffer pH 4.0, ambient temperature, read-out: Solubility Acetate buffer pH 4
[5] = 100 mM acetate buffer pH 5.0, ambient temperature, read-out: Solubility Acetate buffer pH 5
[6] = 100 mM histidine buffer pH 6.0, ambient temperature, read-out: Solubility Histidine buffer pH 6
[7] = 100 mM histidine buffer pH 7.0, ambient temperature, read-out: Solubility Histidine buffer pH 7
[8] = 100 mM phosphate buffer pH 6.0, ambient temperature, read-out: Solubility Phosphate buffer pH 6
[9] = 100 mM phosphate buffer pH 7.0, ambient temperature, read-out: Solubility Phosphate buffer pH 7
[10] = 100 mM phosphate buffer pH 7.5, ambient temperature, read-out: Solubility Phosphate buffer pH 7.5

pH 6 normalized stability ([1]; pH 6, 40° C.)	pH 7 normalized stability [1]	solubility [2, 4] [µg/mL]	solubility [2, 5] [µg/mL]	solubility [2, 6] [µg/mL]	solubility [2, 7] [µg/mL]	solubility [2, 8] [µg/mL]	solubility [2, 9] [µg/mL]	solubility [2, 10] [µg/mL]	EC50 [3] [nM]	Compound
B (>80% stability)	A (>90% normalised stability)	< 1000	< 1000	≥ 1000	≥ 1000	≥ 1000	≥ 1000	≥ 1000	0.17	CC[C@H](C)[C@H](NC(=O)[C@H](Cc1ccccc1)NC(=O)[C@H](CC(=O)O)NC(=O)[C@H](CCCNC(=N)N)NC(=O)[C@H](C)NC(=O)[C@H](C)NC(=O)[C@H](CCC(N)=O)NC(=O)[C@H](CCCCNC(=O)CC[C@H](NC(=O)CCCCCCCCCCCCCCCCC(=O)O)C(=O)O)NC(=O)[C@H](CC(=O)O)NC(=O)[C@H](CC(C)C)NC(=O)[C@@H](NC(=O)[C@@H](NC(=O)[C@H](C)NC(=O)[C@H](CC(C)C)NC(=O)[C@H](CCC(=O)O)NC(=O)[C@H](CO)NC(=O)[C@@H](NC(=O)[C@H](Cc1ccccc1)NC(=O)[C@H](CO)NC(=O)CNC(=O)[C@H](CCC(=O)O)NC(=O)C(C)(C)NC(=O)[C@@H](N)Cc1c[nH]cn1)[C@@H](C)O)[C@@H](C)O)[C@@H](C)CC)C(=O)N[C@@H](C)C(=O)N[C@@H](Cc1c[nH]c2ccccc12)C(=O)N[C@@H](CC(C)C)C(=O)N[C@H](C(=O)N[C@@H](CCC(=O)O)C(=O)N[C@@H](Cc1c[nH]cn1)C(=O)N[C@@H](CCCCN)C(=O)N[C@H](C(=O)N[C@H](C(=O)N[C@@H](CC(=O)O)C(=O)O)[C@@H](C)O)[C@@H](C)CC)[C@@H](C)CC [Compound 24] (HELM PEPTIDE1{H.[Aib].E.G.S.F.T.S.E.L.A.T.I.L.D.K.Q.A.A.R.D.F.I.A.W.L.I.E.H.K.I.T.D}|PEPTIDE2{[O=C(O)CCCCCCCCCCCCCCCCC(=O)[*:2]].[gGlu]}$PEPTIDE1,PEPTIDE2,16:R3-2:R2$$$V2.0)
–	–	< 1000	< 1000	≥ 1000	≥ 1000	≥ 1000	≥ 1000	≥ 1000	0.33	CC[C@H](C)[C@H](NC(=O)[C@H](Cc1ccccc1)NC(=O)[C@H](CC(=O)O)NC(=O)[C@H](CCCNC(=N)N)NC(=O)[C@H](C)NC(=O)[C@H](C)NC(=O)[C@H](CCC(N)=O)NC(=O)[C@H](CCCCNC(=O)CC[C@H](NC(=O)CCCCCCCCCCCCCCCCC(=O)O)C(=O)O)NC(=O)[C@H](CC(=O)O)NC(=O)[C@H](CC(C)C)NC(=O)[C@@H](NC(=O)[C@@H](NC(=O)[C@H](C)NC(=O)[C@H](CC(C)C)NC(=O)[C@H](CCC(=O)O)NC(=O)[C@H](CO)NC(=O)[C@H](CO)NC(=O)[C@H](Cc1ccccc1)NC(=O)[C@@H](NC(=O)CNC(=O)[C@H](CCC(=O)O)NC(=O)C(C)(C)NC(=O)[C@@H](N)Cc1c[nH]cn1)[C@@H](C)O)[C@@H](C)O)[C@@H](C)CC)C(=O)N[C@@H](C)C(=O)N[C@@H](Cc1c[nH]c2ccccc12)C(=O)N[C@@H](CC(C)C)C(=O)N[C@H](C(=O)N[C@@H](CCC(N)=O)C(=O)N[C@@H](Cc1c[nH]cn1)C(=O)N[C@@H](CCCCN)C(=O)N[C@H](C(=O)N[C@H](C(=O)N[C@@H](CC(=O)O)C(=O)O)[C@@H](C)O)[C@@H](C)CC)[C@@H](C)CC [Compound 17] (HELM PEPTIDE1{H.[Aib].E.G.T.F.S.S.E.L.A.T.I.L.D.K.Q.A.A.R.D.F.I.A.W.L.I.Q.H.K.I.T.D}|PEPTIDE2{[O=C(O)CCCCCCCCCCCCCCCCC(=O)[*:2]].[gGlu]}$PEPTIDE1,PEPTIDE2,16:R3-2:R2$$$V2.0)
–	A (>90% normalised stability)	–	–	–	–	–	–	–	0.33	CC[C@H](C)[C@H](NC(=O)[C@H](Cc1ccccc1)NC(=O)[C@H](CC(=O)O)NC(=O)[C@H](CCCNC(=N)N)NC(=O)[C@H](C)NC(=O)[C@H](C)NC(=O)[C@H](CCC(N)=O)NC(=O)[C@H](CCC(=O)O)NC(=O)[C@H](CC(=O)O)NC(=O)[C@H](CC(C)C)NC(=O)[C@@H](NC(=O)[C@@H](NC(=O)[C@H](C)NC(=O)[C@H](CCCCNC(=O)COCCOCCNC(=O)COCCOCCNC(=O)CC[C@H](NC(=O)CCCCCCCCCCCCCCCCCCC(=O)O)C(=O)O)NC(=O)[C@H](CCC(=O)O)NC(=O)[C@H](CO)NC(=O)[C@@H](NC(=O)[C@H](Cc1ccccc1)NC(=O)[C@H](CO)NC(=O)CNC(=O)[C@H](CCC(=O)O)NC(=O)C(C)(C)NC(=O)[C@@H](N)Cc1c[nH]cn1)[C@@H](C)O)[C@@H](C)O)[C@@H](C)CC)C(=O)N[C@@H](C)C(=O)N[C@@H](Cc1c[nH]c2ccccc12)C(=O)N[C@@H](CC(C)C)C(=O)N[C@H](C(=O)N[C@@H](CCC(=O)O)C(=O)N[C@@H](Cc1c[nH]cn1)C(=O)N[C@@H](CCCCN)C(=O)N[C@H](C(=O)N[C@H](C(=O)N[C@@H](CC(=O)O)C(=O)O)[C@@H](C)O)[C@@H](C)CC)[C@@H](C)CC [Compound 42] (H-H[Aib]EGSFTSEK([AEEA-AEEA-γGlu-C20 diacid])ATILDEQAARDFIAWLIEHKITD-OH)
–	–	–	–	–	–	–	–	–	0.38	CC[C@H](C)[C@H](NC(=O)[C@H](Cc1ccccc1)NC(=O)[C@H](CC(=O)O)NC(=O)[C@H](CCCCNC(=O)COCCOCCNC(=O)COCCOCCNC(=O)CC[C@H](NC(=O)CCCCCCCCCCCCCCCCCCC(=O)O)C(=O)O)NC(=O)[C@H](C)NC(=O)[C@H](C)NC(=O)[C@H](CCC(N)=O)NC(=O)[C@H](CCC(=O)O)NC(=O)[C@H](CC(=O)O)NC(=O)[C@H](CC(C)C)NC(=O)[C@@H](NC(=O)[C@@H](NC(=O)[C@H](C)NC(=O)[C@H](CC(C)C)NC(=O)[C@H](CCC(=O)O)NC(=O)[C@H](CO)NC(=O)[C@@H](NC(=O)[C@H](Cc1ccccc1)NC(=O)[C@@H](NC(=O)CNC(=O)[C@H](CCC(=O)O)NC(=O)C(C)(C)NC(=O)[C@@H](N)Cc1c[nH]cn1)[C@@H](C)O)[C@@H](C)O)[C@@H](C)O)[C@@H](C)CC)C(=O)N[C@@H](C)C(=O)N[C@@H](Cc1c[nH]c2ccccc12)C(=O)N[C@@H](CC(C)C)C(=O)N[C@H](C(=O)N[C@@H](CCC(=O)O)C(=O)N[C@@H](Cc1c[nH]cn1)C(=O)N[C@@H](CCCCN)C(=O)N[C@H](C(=O)N[C@H](C(=O)N[C@@H](CC(=O)O)C(=O)O)[C@@H](C)O)[C@@H](C)CC)[C@@H](C)CC [Compound 46] (H-H[Aib]EGTFTSELATILDEQAAK([AEEA-AEEA-γGlu-C20 diacid])DFIAWLIEHKITD-OH)
